# Laboratory results from the supplement of paper PMC10307832.
# Assays:
# Experiment in all cases: relative viability (nuclei count vs DMSO), 5 days (fraction); higher = more cells survive
# [1] = compound: CC1=CC(=NN1)NC2=CC(=NC(=N2)/C=C/C3=CC=CC=C3)N4CCN(CC4)C + O=C(CCCCCCC(=O)Nc1ccccc1)NO [Vorinostat] (partner 1 µM)
# Summary of the method: (§1)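 Medians of duplicate plates are given as relative viability. That measure is the nuclei count in treated wells divided by the count in vehicle wells. Counts were taken on 4× images of lung cancer cell lines in 1536-well plates, 5 days after pin-tool dosing the day after seeding with one drug alone or a fixed anchor-drug dose plus five library-drug doses (not always all listed) in √10 steps.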
# Obatoclax + Vorinostat = compound: COC1=CC(c2cc3ccccc3[nH]2)=N/C1=C\c1[nH]c(C)cc1C [Obatoclax] + O=C(CCCCCCC(=O)Nc1ccccc1)NO [Vorinostat] (partner 1 µM)
# Summary of the method: as §1
# [2] = compound: CC1=CC(=NN1)NC2=CC(=NC(=N2)/C=C/C3=CC=CC=C3)N4CCN(CC4)C + CS(=O)(=O)CCNCc1ccc(-c2ccc3ncnc(Nc4ccc(OCc5cccc(F)c5)c(Cl)c4)c3c2)o1 [Lapatinib] (partner 2 µM)
# Summary of the method: as §1
# Obatoclax + AZD7762 = compound: COC1=CC(c2cc3ccccc3[nH]2)=N/C1=C\c1[nH]c(C)cc1C [Obatoclax] + NC(=O)Nc1cc(-c2cccc(F)c2)sc1C(=O)N[C@H]1CCCNC1 [AZD7762] (partner 0.2 µM)
# Summary of the method: as §1
Cell Line,relative viability ([1]; first compound 0.08 µM),relative viability ([1]; first compound 0.253 µM),relative viability ([1]; first compound 0.8 µM),relative viability ([1]; first compound 2.53 µM),relative viability ([1]; first compound 8 µM),relative viability (Obatoclax + Vorinostat; first compound 0.01 µM),relative viability (Obatoclax + Vorinostat; first compound 0.03162 µM),relative viability (Obatoclax + Vorinostat; first compound 0.1 µM),relative viability (Obatoclax + Vorinostat; first compound 0.3162 µM),relative viability (Obatoclax + Vorinostat; first compound 1 µM),relative viability ([2]; first compound 0.08 µM),relative viability ([2]; first compound 0.253 µM),relative viability ([2]; first compound 0.8 µM),relative viability ([2]; first compound 2.53 µM),relative viability ([2]; first compound 8 µM),relative viability (Obatoclax + AZD7762; first compound 0.01 µM),relative viability (Obatoclax + AZD7762; first compound 0.03162 µM),relative viability (Obatoclax + AZD7762; first compound 0.1 µM),relative viability (Obatoclax + AZD7762; first compound 0.3162 µM),relative viability (Obatoclax + AZD7762; first compound 1 µM)
NCI-H2023,0.586,0.781,0.319,0.0637,0.0403,0.489,0.613,0.632,0.553,0.376,0.849,0.92,0.765,0.0727,0.0496,–,–,–,–,–
EBC-1,–,–,–,–,–,–,–,–,–,–,0.214,0.223,0.254,0.209,0.153,–,–,–,–,–
NCI-H1666,1.05,0.992,0.926,1.12,0.802,1.03,1.08,1.11,0.998,0.754,0.738,0.549,0.669,0.416,0.131,0.959,0.823,0.789,0.815,0.581
NCI-H1975,0.663,0.733,0.536,0.187,0.128,0.674,0.775,0.73,0.735,0.788,0.933,0.923,0.894,0.203,0.149,0.744,0.654,–,0.728,0.756
NCI-H1793,0.544,0.77,0.78,0.124,0.0909,0.725,0.71,0.714,0.711,0.722,0.528,0.566,0.656,0.1,0.0979,0.484,0.419,0.499,0.368,0.209
NCI-H1355,0.639,0.599,0.622,0.273,0.104,0.623,0.625,0.627,0.601,0.623,1.11,1.03,0.944,0.645,0.422,0.698,0.709,0.613,0.735,0.647
SW 900,0.388,0.623,0.535,0.211,0.0757,0.493,0.489,0.509,0.389,0.372,–,–,–,–,–,0.588,0.489,0.671,0.46,0.519
A549,–,–,–,–,–,–,–,–,–,–,0.924,0.954,0.772,0.102,0.0367,–,–,–,–,–
NCI-H2170,0.867,0.921,0.65,0.211,0.153,0.698,0.88,0.742,0.799,0.782,0.277,0.255,0.244,0.199,0.166,0.851,0.844,0.801,0.831,0.743
EKVX,0.702,0.82,0.794,0.571,0.289,0.747,0.592,0.765,0.725,0.649,0.191,0.216,0.226,0.136,0.0912,0.614,–,0.348,0.756,0.706
RERF-LC-KJ,0.523,0.73,0.577,0.406,0.301,0.649,0.791,0.709,0.595,0.474,0.878,0.875,0.839,0.716,0.292,1.04,0.914,0.732,0.838,0.923
NCI-H1755,0.682,0.773,0.651,0.359,0.209,0.698,0.765,0.767,0.753,0.728,1.06,1.12,1.01,0.535,0.143,0.387,0.468,0.381,0.457,0.423
NCI-H661,0.784,0.854,0.562,0.348,0.311,0.734,0.789,0.81,0.711,0.552,0.489,0.53,0.57,0.419,0.146,–,–,–,–,–
LOU-NH91,0.954,0.935,0.941,0.594,0.41,0.982,0.889,0.709,0.885,0.65,0.669,0.785,0.698,0.567,0.333,0.703,0.717,0.646,0.667,0.539
SW 1573,0.703,0.751,0.572,0.156,0.102,0.791,1.04,0.792,0.429,0.169,1.08,1.34,1.11,0.906,0.134,–,–,–,–,–
NCI-H2228,0.778,0.647,0.328,0.0662,0.0606,0.564,0.83,0.859,0.654,0.164,1.16,0.85,0.685,0.103,0.0435,–,–,–,–,–
NCI-H1650,0.523,0.733,0.553,0.14,0.0794,0.494,0.661,0.61,0.417,0.301,0.775,0.739,0.946,0.109,0.0756,–,–,–,–,–
NCI-H1792,–,–,–,–,–,–,–,–,–,–,0.862,0.861,0.892,0.841,0.145,0.732,0.482,0.513,0.527,0.213

Cell Line,relative viability ([1]; first compound 0.08 µM),relative viability ([1]; first compound 0.253 µM),relative viability ([1]; first compound 0.8 µM),relative viability ([1]; first compound 2.53 µM),relative viability ([1]; first compound 8 µM),relative viability (Obatoclax + Vorinostat; first compound 0.01 µM),relative viability (Obatoclax + Vorinostat; first compound 0.03162 µM),relative viability (Obatoclax + Vorinostat; first compound 0.1 µM),relative viability (Obatoclax + Vorinostat; first compound 0.3162 µM),relative viability (Obatoclax + Vorinostat; first compound 1 µM),relative viability ([2]; first compound 0.08 µM),relative viability ([2]; first compound 0.253 µM),relative viability ([2]; first compound 0.8 µM),relative viability ([2]; first compound 2.53 µM),relative viability ([2]; first compound 8 µM),relative viability (Obatoclax + AZD7762; first compound 0.01 µM),relative viability (Obatoclax + AZD7762; first compound 0.03162 µM),relative viability (Obatoclax + AZD7762; first compound 0.1 µM),relative viability (Obatoclax + AZD7762; first compound 0.3162 µM),relative viability (Obatoclax + AZD7762; first compound 1 µM)
COR-L 105,0.818,0.762,0.753,0.47,0.262,0.837,0.905,0.885,0.725,0.445,0.335,0.341,0.338,0.23,0.223,–,–,–,–,–
Calu-6,–,–,–,–,–,–,–,–,–,–,0.93,0.966,0.793,0.195,0.137,–,–,–,–,–
NCI-H2009,0.751,0.699,0.712,0.218,0.121,0.723,0.73,0.634,0.502,0.251,0.907,0.628,1.03,0.451,0.189,–,–,–,–,–
LCLC-103H,0.824,0.69,0.779,0.582,0.294,0.791,0.676,0.715,0.756,0.799,–,–,–,–,–,0.766,0.727,0.682,0.871,0.917
NCI-H2342,0.685,0.765,0.698,0.722,0.312,0.767,0.717,0.859,0.874,0.958,–,–,–,–,–,0.614,0.392,0.51,0.363,0.389
NCI-H1299,–,–,–,–,–,–,–,–,–,–,0.955,0.977,0.982,0.685,0.257,–,–,–,–,–
ChaGo-K-1,0.799,0.8,0.613,0.343,0.186,0.756,0.587,0.637,0.742,0.795,–,–,–,–,–,0.892,0.88,0.831,0.881,0.914
NCI-H1703,–,–,–,–,–,–,–,–,–,–,1.11,0.975,0.373,0.177,0.167,0.135,–,–,0.138,0.126
UMC-11,0.371,0.363,0.201,0.117,0.0745,0.39,0.439,0.375,0.407,0.288,0.9,0.758,0.63,0.152,0.128,–,–,–,–,–
NCI-H522,0.894,0.93,1.12,0.854,0.426,0.891,0.794,0.793,0.967,0.973,–,–,–,–,–,0.823,0.664,0.915,0.92,0.883
IA-LM,1.02,1.12,0.874,0.887,0.332,0.993,0.89,1.05,0.905,1.11,–,0.885,0.961,0.638,0.113,–,–,–,–,–
COR-L23,0.417,0.446,0.195,0.0754,0.087,0.562,0.507,0.42,0.166,0.18,0.98,1.51,1.1,0.22,0.0755,–,–,–,–,–
SK-MES-1,1.09,1.25,0.985,0.191,0.165,1.06,1.11,0.905,0.907,0.301,0.44,0.52,0.453,0.329,0.146,–,–,–,–,–
SK-LU-1,0.721,0.805,0.672,0.323,0.107,0.833,0.827,0.723,0.671,0.441,0.861,0.959,0.699,0.386,0.116,–,–,–,–,–
NCI-H1563,–,–,–,–,–,–,–,–,–,–,0.905,0.784,0.91,0.667,0.403,–,–,–,–,–
NCI-H520,0.7,0.678,0.415,0.184,0.14,0.685,0.712,0.764,0.542,0.315,0.831,0.887,0.573,0.182,0.0952,–,–,–,–,–
NCI-H441,0.569,0.768,0.58,0.498,0.138,0.768,0.837,0.728,0.733,0.645,–,–,–,–,–,1.33,1.28,1.16,0.941,1.08
NCI-H1648,0.437,0.488,0.666,0.346,0.203,0.557,0.479,0.739,0.357,0.822,–,–,–,–,–,0.701,0.754,1,0.77,0.886
